Series [1] is described as follows: Absorption of ICG over time at light and at dark. It counts as physicochemical. The protocol:
Absorbance spectra of the samples were taken using a Cary 100 Biospectrophotometer, in a 1 cm polystyrene cell, and a scan rate of 600 nm/min.
The red shift is accompanied with quenching of fluorescence, i.e., the larger the red shift the lower the fluorescence intensity. Because the fluorescence intensity of ICG-liposomes was greater than that of unbound ICG molecules (aqueous solution), the quantum yield ratio between the two states in which ICG is present was determined, for a concentration of 1.28×10^−3 mM. As mentioned above, ICG is poorly stable in aqueous solutions due to degradation, and therefore, in order to evaluate the stability of the ICG-adsorbed liposomes, the absorption of this fluorescent probe, when dissolved in an aqueous solution or adsorbed to the liposomes, was measured at light and at dark over time.

The next series has as its system A431 cells. The series is described as follows: EGF-FITC labeling of A431 cells by fluorescent microscopy. It counts as cell-based. The following applies: 10 ng/ml, 15 min; reduced by excess unlabeled EGF. The protocol: (§1) FIGS. 7A-7D show purification and bioactivity validation of EGF-FITC. Purification of FITC-labeled EGF was performed in two sequential steps of desalting (7A) and ion exchange (7B). A431 cultures were incubated with 10 ng/ml for 10 min with native (EGF) and FITC-labeled EGF (EGF-FITC) or left untreated. The phosphorylation of Erk (p-Erk) was evaluated using Western blotting. Total Erk protein (pan-Erk) was measured for internal control purposes to assure loading of equal protein quantities (7C). A431 cells were incubated for 15 min with 10 ng/ml EGF-FITC in the presence or absence of excess unlabeled EGF (500 ng/ml) or left untreated. The cultures were visualized using fluorescent microscopy at 40× magnification (7D).
In order to study the binding of cetuximab-labeled ICG-adsorbed liposomes to cell overexpressing EGFR we prepared FITC-labeled EGF (EGF-FITC) to be used as positive control. EGF-FITC was purified from excess FITC and unlabeled FOP via desalting and ion exchange purification steps. Following desalting, the fraction containing EGF and EGF-FITC was collected (FIG. 7A) and further processed to separate labeled from unlabeled EGF. […] Upon purification of EGF-FITC, the bioactivity of the labeled protein was evaluated. […] Following validation of the bioactivity of the labeled protein, EGF-FITC was used in the next experiments as a positive control.

Series [2] relates to Erk phosphorylation, an EGFR downstream signaling molecule, in A431 cells. The series is described as follows: EGF-FITC bioactivity: Erk phosphorylation by Western blotting. It counts as cell-based. The following applies: A431 cultures, 10 ng/ml for 10 min. The protocol: as §1, with “The cultures were visualized using fluorescent microscopy at 40× magnification (7D).” left out
Western blotting was performed as described by Lecht et al. (2010). Briefly, total cellular protein was extracted following lysis of the A431 cells and quantified using the Bradford reagent assay (Bio-Rad, Hercules, Calif., USA). For Western blotting, equal quantities of protein (40 μg) were loaded on 10% polyacrylamide gels, separated by SDS-PAGE (100 V for 1.5 hrs), and transferred on ice to nitrocellulose membranes (90 V for 1.5 hrs) (Whatman, Germany). […]
In order to study the binding of cetuximab-labeled ICG-adsorbed liposomes to cell overexpressing EGFR we prepared FITC-labeled EGF (EGF-FITC) to be used as positive control. […] Upon purification of EGF-FITC, the bioactivity of the labeled protein was evaluated. […]

Take `CC1(C)C(/C=C/C=C/C=C/C=C2\N(CCCCS(=O)(=O)[O-])c3ccc4ccccc4c3C2(C)C)=[N+](CCCCS(=O)(=O)[O-])c2ccc3ccccc3c21.[Na+]` [ICG, Indocyanine green]: the “ICG absorption over time” value in series [1] is “decreases over time both in light and in dark”.

Turning to “EGF-FITC: human recombinant EGF covalently labeled with FITC, used as positive control”, the “labeling of A431 cells” value in the series with A431 cells is “highly specific labeling”. In addition, the Erk phosphorylation result in series [2] was “able to induce Erk phosphorylation”.

The values above are taken from patent US20130209368A1, “NEAR INFRARED FLUORESCENT PARTICLES AND USES THEREOF” (YISSUM RESEARCH DEVELOPMENT COMPANY OF THE HEBREW …, priority 2010, published 2013).
